Drawing on ChEMBL document CHEMBL1143112, “Three-component, one-pot synthesis of novel 2,4-substituted 5-azolylthiopyrimidine library for screening against anti-influenza virus A” (Bioorg Med Chem Lett, 2008), this text covers CC50, Selectivity index and IC50 for 5 molecules.

In brackets after ≈: the same amount, converted by molar mass.

Data set [1] is described as follows: Cytotoxicity against dog MDCK cells. Type of data set: cell-based, Canis lupus familiaris.
Data set [2] in a line: Selectivity index, CC50 for dog MDCK cells to IC50 for influenza A virus H3N2. It is filed as functional.
For a further data set, the system named is Influenza B virus. Put plainly: Antiviral activity against influenza B virus expressed in dog MDCK cells assessed as reduction of virus-induced cytopathic effect. Type of data set: functional, organism-based. (In general: Cytopathic effects are the visible damage that an infection or toxin causes in cultured cells.)

`CC(C)(C)c1ncc(Sc2nc[nH]n2)c(-c2cc(Cl)ccc2O)n1` registered a cytotoxic concentration (CC50) in data set [1] of 9580 µg/mL (≈ 26.5 mM).
Consider `CC(C)(C)c1nccc(-c2ccccc2O)n1`, for which the cytotoxic concentration (CC50) in data set [1] amounted to 16200 µg/mL (≈ 71.2 mM).
`Cn1ccnc1Sc1cnc(C(C)(C)C)nc1-c1ccccc1O`: in data set [2], the Selectivity index stood at 9.
Turning to `COc1ccc(O)c(-c2nc(SC)ncc2Sc2nccn2C)c1`, in data set [1], the CC50 stood at 7190 µg/mL (≈ 19.9 mM).
With `NC(=O)c1ncn([C@@H]2O[C@H](CO)[C@@H](O)[C@H]2O)n1` [RIBAVIRIN], the IC50 in the data set on Influenza B virus was found to be 4270 µg/mL (≈ 17.5 mM).

One may read the CC50 as the concentration that lowers cell viability or growth by half. A higher CC50 goes with lower toxicity to the cells. As usually defined, the IC50 is the concentration that gives 50% inhibition.
